Paper PMC6288471 (Frontiers in Veterinary Science, 2018)
Where two headings read alike, the source gives them in different places.

Tests used:
platelets = conditions: PRP spiked ex vivo with concentrations similar to 44 to 74 ng/mL, data not shown
plasma protein = conditions: rabbits; cited from earlier work
P-glycoprotein = conditions: cited from earlier work
[1] = Protein binding of apixaban in spiked platelet-poor plasma (ultrafiltration, UPLC-MS); type: in vitro ADME, horse
Description: The supernatant was filtered with a […] syringe filter (Corning Inc.). […] Half of the sample was subsequently frozen at −20°C and the rest was ultracentrifuged at 16,000 × g for 30 min in a molecular exclusion device (Amicon Ultra 30k filter, Millipore), to remove the major plasma proteins. The ultrafiltrate was then frozen at −20°C. Both the spiked plasma and the ultrafiltrate of the spiked plasma were analyzed for apixaban using UPLC-MS.

[2] = Clinical pathologic testing: select biochemical tests; type: in vivo, horses; conditions: for SDH (sorbitol dehydrogenase), median (range): reference interval 0–11; for GLDH (glutamate dehydrogenase), median (range): reference interval 1–8; for UN (urea nitrogen), median (range): reference interval 3.9–10.0; for SAA (serum amyloid A), median (range): reference interval 5–20, 5 mg/L is the lower limit of detection; for GGT (gamma glutamyl transferase), median (range): reference interval 8–29; for GLOB (globulins), median (range): reference interval 24–44; for ALB (albumin), median (range): reference interval 30–37; for CREAT (creatinine), median (range): reference interval 53–141; for TP (total protein), median (range): reference interval 57–77
Description: (§1) Automated hemogram results were obtained from the EDTA-anticoagulated blood with a hematology analyzer (ADVIA 2120, Siemens Healthcare Diagnostics Inc., Tarrytown, NJ, USA). To verify the automated platelet counts, modified Wright's-stained blood smears were evaluated for platelet clumps by trained medical technologists. Biochemical analysis for renal analytes (serum urea nitrogen and creatinine concentrations), liver enzymes (sorbitol dehydrogenase, glutamate dehydrogenase, aspartate aminotransferase and gamma glutamyl transferase activities), protein-related analytes (total protein, albumin, and globulin concentrations), and the acute phase protein, serum amyloid A, were performed with an automated chemistry analyzer (Hitachi P modular, Roche Diagnostics, Indianapolis, IN, USA) using manufacturer's reagents, with the exception of sorbitol dehydrogenase (Sigma-Aldrich), glutamate dehydrogenase (Randox Laboratories Ltd, Antrim, UK), and serum amyloid A (LZ test Eiken-SAA, Mast House, Merseyside, UK).

[3] = Clinical observation for adverse effects / safety testing of a trial IV dose; type: in vivo, horses
Description: The paste was transferred to a 60 mL syringe (Becton-Dickinson) and stored at room temperature until administration. For IV formulation, crushed tablets were dissolved in a vehicle consisting of 10% v/v N,N-dimethylacetamide (EMD Millipore, Billerica, MA, USA), 17% v/v propylene glycol (Sigma-Aldrich), 17% v/v dimethyl sulfoxide (DMSO, Sigma-Aldrich), and 56% v/v deionized water (MilliQ® water, Q-Pod®, EMD Millipore). After vigorous vortexing, the formulation was sterile filtered through a […] cellulose acetate filter (Corning Inc., Corning, NY, USA) then drawn into 60 mL syringes. The IV formulation was prepared 24 h before administration and stored at room temperature. […] To ensure that the vehicle was not toxic, safety testing was performed on a trial IV dose given to a different horse.
Some individual horses had test results that were slightly above or below the established reference intervals, but this likely represented normal biological variability. […] Again, we attributed this to normal biological variation.

[4] = rats; cited from earlier work
[5] = chimpanzees; cited from earlier work
[6] = cats, cited from earlier work
[7] = Clinical pathologic testing: automated hemogram; type: in vivo; conditions: horses, 24 h after PO or IV administration
Description: as §1

[8] = humans; cited from earlier work
[9] = other animals; cited from earlier work
[10] = target: T1, bovine activated Factor X (Bos taurus, UniProt P00743); assay: Apixaban-calibrated chromogenic anti-Xa activity assay in platelet-poor plasma of dosed horses; type: in vivo, horse; conditions: for Anti-Xa activity (ng/mL), median (range): PO 0.2 mg/kg
T1 construct: purchased Diagnostica Stago STA®-Liquid anti-Xa
Description: The PPP was harvested from the supernatant of PRP after high-speed centrifugation (13,000 × g, Accuspin Micro, Thermo Scientific, Rockford, IL, USA) for 5 min. The PPP was frozen at −20°C and assays were performed in batches. The PPP was thawed at 37°C in a water bath before analysis with an automated coagulation analyzer (STA® Compact, Diagnostica Stago, Parsipanny, NJ, USA). The assay is configured with a bovine activated Factor X reagent added in excess to the test plasma and a chromogenic substrate of Factor Xa (STA®-Liquid anti-Xa, Diagnostica Stago). In this assay, residual, uninhibited Factor Xa cleaves the chromogenic substrate such that the inverse of the color change in the reaction mixture is proportional to the drug concentration in the test plasma.

[11] = rabbits, cited from earlier work

T1 sequence (P00743 234-492 limits assumed): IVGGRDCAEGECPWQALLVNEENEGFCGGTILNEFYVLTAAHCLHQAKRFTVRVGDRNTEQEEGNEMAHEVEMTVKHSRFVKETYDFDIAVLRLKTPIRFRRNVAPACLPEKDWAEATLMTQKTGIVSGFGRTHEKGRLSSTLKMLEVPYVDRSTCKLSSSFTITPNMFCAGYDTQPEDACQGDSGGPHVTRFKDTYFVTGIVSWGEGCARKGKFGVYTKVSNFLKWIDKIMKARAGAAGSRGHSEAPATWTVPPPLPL
T1 sequence (P00743 41-180 limits assumed): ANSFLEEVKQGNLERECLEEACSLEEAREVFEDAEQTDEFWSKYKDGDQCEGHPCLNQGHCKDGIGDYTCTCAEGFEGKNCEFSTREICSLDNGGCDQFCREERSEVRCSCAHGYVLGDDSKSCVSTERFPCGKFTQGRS

Compound: COc1ccc(-n2nc(C(N)=O)c3c2C(=O)N(c2ccc(N4CCCCC4=O)cc2)CC3)cc1 [apixaban]
- inhibition of platelet activation in spiked equine PRP (platelets): did not see any inhibition
- apixaban protein bound (plasma protein): ~ 60%
- P-glycoprotein substrate (P-glycoprotein): substrate
- fraction unbound at 30 min, 200 nM ([1]; horse PPP spiked at 92 ng/mL (200 nM), read-out: mean percentage of protein binding (converted)): 0.076
- fraction unbound at 30 min, 1000 nM ([1]; horse PPP spiked at 460 ng/mL (1,000 nM), read-out: mean percentage of protein binding (converted)): 0.015
- fraction unbound at 30 min ([1]; horse plasma, range as given in abstract): 0.01 to 0.08
- SDH (sorbitol dehydrogenase), median (range) ([2]; IV, T0 (before)): 4 (3–4) U/L
- GLDH (glutamate dehydrogenase), median (range) ([2]; IV, T0 (before)): 4 (3–4) U/L
- UN (urea nitrogen), median (range) ([2]; IV, T0 (before)): 6.8 (6.1–7.8) mmol/L
- SAA (serum amyloid A), median (range) ([2]; IV, T0 (before)): 5 (5–9) mg/L
- GGT (gamma glutamyl transferase), median (range) ([2]; IV, T0 (before)): 11 (10–13) U/L
- GLOB (globulins), median (range) ([2]; IV, T0 (before)): 36 (32–38) g/L
- ALB (albumin), median (range) ([2]; IV, T0 (before)): 32 (30–34) g/L
- CREAT (creatinine), median (range) ([2]; IV, T0 (before)): 106 (97–106) μmol/L
- TP (total protein), median (range) ([2]; IV, T0 (before)): 68 (66–71) g/L
- SDH (sorbitol dehydrogenase), median (range) ([2]; IV, T24): 3 (2–4) U/L
- GLDH (glutamate dehydrogenase), median (range) ([2]; IV, T24): 3 (3–5) U/L
- UN (urea nitrogen), median (range) ([2]; IV, T24): 5.7 (5.4–7.5) mmol/L
- SAA (serum amyloid A), median (range) ([2]; IV, T24): 8 (5–12) mg/L
- GGT (gamma glutamyl transferase), median (range) ([2]; IV, T24): 11 (10–13) U/L
- GLOB (globulins), median (range) ([2]; IV, T24): 37 (32–40) g/L
- ALB (albumin), median (range) ([2]; IV, T24): 32 (30–35) g/L
- CREAT (creatinine), median (range) ([2]; IV, T24): 115 (106–115) μmol/L
- TP (total protein), median (range) ([2]; IV, T24): 68 (67–72) g/L
- SDH (sorbitol dehydrogenase), median (range) ([2]; PO, T0 (before)): 5 (4–10) U/L
- GLDH (glutamate dehydrogenase), median (range) ([2]; PO, T0 (before)): 6 (4–10) U/L
- UN (urea nitrogen), median (range) ([2]; PO, T0 (before)): 6.4 (5.4–7.1) mmol/L
- SAA (serum amyloid A), median (range) ([2]; PO, T0 (before)): 5 (5–7) mg/L
- GGT (gamma glutamyl transferase), median (range) ([2]; PO, T0 (before)): 12 (7–13) U/L
- GLOB (globulins), median (range) ([2]; PO, T0 (before)): 35 (30–38) g/L
- ALB (albumin), median (range) ([2]; PO, T0 (before)): 32 (29–32) g/L
- CREAT (creatinine), median (range) ([2]; PO, T0 (before)): 97 (88–106) μmol/L
- TP (total protein), median (range) ([2]; PO, T0 (before)): 67 (62–70) g/L
- SDH (sorbitol dehydrogenase), median (range) ([2]; PO, T24): 4 (3–5) U/L
- GLDH (glutamate dehydrogenase), median (range) ([2]; PO, T24): 4 (4–7) U/L
- UN (urea nitrogen), median (range) ([2]; PO, T24): 5.7 (4.6–6.4) mmol/L
- SAA (serum amyloid A), median (range) ([2]; PO, T24): 5 (5–5) mg/L
- GGT (gamma glutamyl transferase), median (range) ([2]; PO, T24): 12 (9–13) U/L
- GLOB (globulins), median (range) ([2]; PO, T24): 36 (30–39) g/L
- ALB (albumin), median (range) ([2]; PO, T24): 32 (29–33) g/L
- CREAT (creatinine), median (range) ([2]; PO, T24): 106 (97–115) μmol/L
- TP (total protein), median (range) ([2]; PO, T24): 65 (63–72) g/L
- changes in chosen biochemical test results ([2]; horses, 24 h after PO or IV administration): no significant changes
- clinically apparent adverse effects ([3]; horses, oral and IV formulations): no clinically apparent adverse effects
- changes in clinical pathologic test results ([3]; trial IV dose in a different horse, 24 h after IV bolus): no changes
- adverse clinical reactions ([3]; trial IV dose of dissolved apixaban in a different horse): no adverse clinical reactions
- availability after oral administration [4]: 50%
- availability after oral administration [5]: 50%
- half-life ([6]; 0.2 mg/kg IV dose): 66 min
- Cmax ([6]; IV administration 0.2 mg/kg): 460 ng/mL
- bioavailability ([6]; oral 0.2 mg/kg): 85%
- Cmax ([6]; oral administration 0.2 mg/kg): 74 ng/mL
- changes in hematologic test results [7]: no significant changes
- availability after oral administration [8]: 50%
- fecal route of elimination, share of the dose [8]: > 46%
- fecal route of elimination, share of the dose [9]: more than 54%
- Anti-Xa activity (ng/mL), median (range) ([10]; 15 min): 7.4 (5.9–9.4) ng/mL
- Anti-Xa activity (ng/mL), median (range) ([10]; 30 min): 7.5 (6.8–12.5) ng/mL
- Anti-Xa activity (ng/mL), median (range) ([10]; 45 min): 9.9 (8.4–10.1) ng/mL
- Anti-Xa activity (ng/mL), median (range) ([10]; 1 h): 10.9 (8.4–17) ng/mL
- Anti-Xa activity (ng/mL), median (range) ([10]; 2 h): 9.7 (7.4–14.8) ng/mL
- Anti-Xa activity (ng/mL), median (range) ([10]; 4 h): 9.3 (3.8–12) ng/mL
- Anti-Xa activity (ng/mL), median (range) ([10]; 6 h): 10.7 (6.3–13.8) ng/mL
- Anti-Xa activity (ng/mL), median (range) ([10]; 24 h): 7.6 (0–8.3) ng/mL
- change in anti-Xa activity ([10]; oral dosing of apixaban): No change
- half-life ([11]; 2.5 mg/kg IV dose): 36 min
- oral absorption ([11]; 10 mg/kg): 3%
